Assay results as given in paper PMC8864165, “Functional Effects of ARV-1502 Analogs Against Bacterial Hsp70 and Implications for Antimicrobial Activity” (Frontiers in Chemistry, 2022).
Square brackets hold non-standard residues; d marks the D form. Peptide text beside a SMILES is read from it. Ac6c = NC1(C(=O)O)CCCCC1

What was measured:
S. aureus DnaK [1] = target: T1, S. aureus DnaK (Staphylococcus aureus, UniProt P99110); experiment: Competitive fluorescence polarization Ki; format: binding; settings: unlabeled peptide competing with Cf-labeled peptide; DnaK 16 µmol/L; 90 + 90 min, 28°C
T1 construct: His6-tag with TEV site ([…]) (N, cleaved yes); made in house; host or cells: E. coli (DE3) Rosetta pLysS
Method: (§1) The quality of the experimental set up was evaluated by the Z′ factor ([Zhang et al., 1999]) (Supplementary Table S2). […] The obtained FP-values were normalized to the FP-values determined for lead sequence ARV-1502.

E. coli DnaK [2] = target: T2, E. coli DnaK (Escherichia coli, UniProt P0A6Y8); experiment: Competitive fluorescence polarization Ki; format: binding; settings: unlabeled peptide competing with Cf-labeled peptide; DnaK 5 µmol/L; 90 + 90 min, 28°C
T2 construct: His6-tag with TEV site ([…]) (N, cleaved yes); made in house; host or cells: E. coli (DE3) Rosetta pLysS
Method: as §1

E. coli DnaK [3] = target: T2, E. coli DnaK; format: binding
Method: The plate was incubated (90 min, 28°C, dark) and Cf-ARV-1502 (80 nmol/L; 10 µL/well) added. […] Each peptide was screened in duplicate. Control samples either lacked the unlabeled peptide (maximum) or contained Cf-ARV-1502 in buffer (minimum).
as §1

S. aureus DnaK [4] = target: T1, S. aureus DnaK; experiment: FP peptide binding screening against Cf-ARV-1502; settings: screening: DnaK 16 µmol/L, unlabeled peptide 35 µmol/L, duplicate, below 1 = better than ARV-1502
[5] = system: S. aureus DnaK/DnaJ/GrpE-chaperone system; experiment: ATPase activity assay (malachite green), chaperone system; format: biochemical, Staphylococcus aureus; settings: peptide screen, 0.3 mmol/L peptide; for ATPase activity of the S. aureus DnaK/DnaJ/GrpE system, normalized to activity without peptide (100%): 37°C, 2 h, triplicates
Method: (§2) ATPase activity of E. coli and S. aureus chaperones was studied in the presence of an AMP using a 384-well plate colorimetric assay ([Chang et al., 2008]; [Zahn et al., 2013]). […] The chaperone mix (13.5 µL) was incubated with an aqueous peptide solution (1.5 µL; final concentration 0.3 mmol/L) at 37°C for 30 min in a non-binding 384-well plate (flat bottom, Greiner Bio-One GmbH). Each sample was prepared in triplicates on the same plate. The reaction was started by addition of ATP dissolved in assay buffer (5 µL, 4 mmol/L) and the plate centrifuged (500 × g, 2 min; Allegra™ 21R, Beckmann Coulter, Krefeld, Germany) before incubated (37°C, 2 h). The released phosphate was quantified using an external phosphate dilution series (10–200 µmol/L KH2PO4 in assay buffer) prepared on each plate and treated equally as the samples. The reaction was stopped by adding assay buffer (80 µL) to all samples except the phosphate dilution series. Aliquots of all samples (10 µL) were transferred to a clear 384-well plate (flat bottom, Greiner Bio-One GmbH) and malachite green reagent added (90 µL; mixture of malachite green in water (0.04%, w/v), ammonium molybdate (2%, w/w) in aqueous sulfuric acid (3.5 mol/L), and water at a ratio of 1:1:3.6, v/v/v). After 15 min, the absorbance was recorded at 620 nm on the […]™ microplate reader. The phosphate standard curve was fitted by a hyperbolic equation y = (ax)/(b + x) + c.

[6] = system: E. coli DnaK/DnaJ/GrpE-chaperone system; experiment: as above; format: biochemical, Escherichia coli; settings: peptide screen, 0.3 mmol/L peptide; for ATPase activity of the E. coli DnaK/DnaJ/GrpE system, normalized to activity without peptide (100%): 37°C, 2 h, triplicates
Method: as §2

T2 sequence (P0A6Y8 whole entry): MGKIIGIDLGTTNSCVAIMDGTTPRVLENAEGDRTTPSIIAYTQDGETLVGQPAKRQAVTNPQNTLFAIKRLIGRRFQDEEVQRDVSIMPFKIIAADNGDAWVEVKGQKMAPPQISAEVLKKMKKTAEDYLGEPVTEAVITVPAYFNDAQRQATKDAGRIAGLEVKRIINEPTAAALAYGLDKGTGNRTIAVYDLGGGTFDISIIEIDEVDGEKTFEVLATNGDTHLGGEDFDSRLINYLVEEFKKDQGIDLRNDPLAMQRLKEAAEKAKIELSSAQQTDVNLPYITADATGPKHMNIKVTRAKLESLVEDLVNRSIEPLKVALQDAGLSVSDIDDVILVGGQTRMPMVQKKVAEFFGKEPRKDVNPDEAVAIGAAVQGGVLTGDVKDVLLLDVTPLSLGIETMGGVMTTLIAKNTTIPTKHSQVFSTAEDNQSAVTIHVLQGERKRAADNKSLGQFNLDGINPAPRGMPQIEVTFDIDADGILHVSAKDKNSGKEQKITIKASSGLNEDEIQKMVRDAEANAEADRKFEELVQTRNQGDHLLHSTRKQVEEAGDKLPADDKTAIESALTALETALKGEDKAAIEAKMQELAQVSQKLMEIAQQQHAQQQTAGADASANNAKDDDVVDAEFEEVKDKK
T1 sequence (P99110 whole entry): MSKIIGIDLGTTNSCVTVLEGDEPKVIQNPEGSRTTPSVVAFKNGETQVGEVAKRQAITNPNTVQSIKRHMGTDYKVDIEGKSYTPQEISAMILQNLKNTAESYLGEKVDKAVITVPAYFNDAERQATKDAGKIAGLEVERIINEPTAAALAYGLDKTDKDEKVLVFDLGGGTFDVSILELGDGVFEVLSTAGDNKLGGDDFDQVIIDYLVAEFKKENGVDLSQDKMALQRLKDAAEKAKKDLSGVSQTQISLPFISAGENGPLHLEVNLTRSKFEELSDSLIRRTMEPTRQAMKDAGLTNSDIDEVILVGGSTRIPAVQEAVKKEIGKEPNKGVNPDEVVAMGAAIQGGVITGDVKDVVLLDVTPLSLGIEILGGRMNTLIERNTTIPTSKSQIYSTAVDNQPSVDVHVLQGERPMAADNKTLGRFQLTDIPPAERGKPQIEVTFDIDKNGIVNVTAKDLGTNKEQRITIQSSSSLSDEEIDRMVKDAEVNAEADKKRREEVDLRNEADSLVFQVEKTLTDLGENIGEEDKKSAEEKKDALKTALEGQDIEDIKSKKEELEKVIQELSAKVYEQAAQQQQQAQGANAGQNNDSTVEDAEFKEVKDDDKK

Row | Compound | binding to E. coli DnaK, FP-value normalized to ARV-1502 (E. coli DnaK [3]) | binding to S. aureus DnaK, FP-value normalized to ARV-1502 (S. aureus DnaK [4]) | further results
1 | CC(C)C[C@H](NC(=O)[C@H](Cc1ccc(O)cc1)NC(=O)[C@@H]1CCCN1C(=O)[C@H](CCCNC(=N)N)NC(=O)[C@@H]1CCCN1C(=O)[C@H](CCCCN)NC(=O)[C@H](CCCCN)NC(=O)[C@@H]1CCCN1C(=O)[C@H](CCCNC(=N)N)NC(=O)C1(N)CCCCC1)C(=O)N1CCC[C@H]1C(=O)N[C@@H](Cc1ccccc1)C(=O)N1CCC[C@H]1C(=O)N[C@@H](CCCNC(=N)N)C(=O)N1CCC[C@H]1C(=O)N1CCC[C@H]1C(=O)N[C@@H](CCCNC(=N)N)C(=O)N1CCC[C@H]1C(=O)N[C@H](C(=O)N[C@@H](CCCNC(=N)N)C(N)=O)C(C)C [compound 46] (H-[Ac6c]RPKKPRPYLPFPRPPRPVR-NH2) | – | – | Ki (S. aureus DnaK [1]): 15.6 µM; Ki (E. coli DnaK [2]): 660 nM
2 | CC(C)C[C@H](NC(=O)[C@H](Cc1ccc(O)cc1)NC(=O)[C@@H]1CCCN1C(=O)[C@H](CCCNC(=N)N)NC(=O)[C@@H]1CCCN1C(=O)[C@H](Cc1ccccc1)NC(=O)[C@H](Cc1ccccc1)NC(=O)[C@@H]1CCCN1C(=O)[C@H](CCCNC(=N)N)NC(=O)C1(N)CCCCC1)C(=O)N[C@@H](CO)C(=O)N[C@@H](CCCNC(=N)N)C(=O)N1CCC[C@H]1C(=O)N[C@@H](CCCNC(=N)N)C(=O)N1CCC[C@H]1C(=O)N1CCC[C@H]1C(=O)N[C@@H](CCCNC(=N)N)C(=O)N1CCC[C@H]1C(=O)N[C@H](C(=O)N[C@@H](CCCNC(=N)N)C(N)=O)C(C)C [compound 99] (H-[Ac6c]RPFFPRPYLSRPRPPRPVR-NH2) | best binders | best binders | DnaK binding in the screening, in words (E. coli DnaK [3]; FP screening, DnaK variant not stated at the place): best binding
3 | CC(C)C[C@H](NC(=O)[C@H](CO)NC(=O)[C@@H]1CCCN1C(=O)[C@H](CCCNC(=N)N)NC(=O)[C@@H]1CCCN1C(=O)[C@H](CCCCN)NC(=O)[C@H](CC(=O)O)NC(=O)[C@@H]1CCCN1C(=O)[C@H](CCCNC(=N)N)NC(=O)C1(N)CCCCC1)C(=O)N1CCC[C@H]1C(=O)N[C@@H](Cc1ccccc1)C(=O)N1CCC[C@H]1C(=O)N[C@@H](CCCNC(=N)N)C(=O)N1CCC[C@H]1C(=O)N1CCC[C@H]1C(=O)N[C@@H](CCCNC(=N)N)C(=O)N1CCC[C@H]1C(=O)N[C@H](C(=O)N[C@@H](CCCNC(=N)N)C(N)=O)C(C)C [compound 130] (H-[Ac6c]RPDKPRPSLPFPRPPRPVR-NH2) | – | – | Ki (S. aureus DnaK [1]): 8.46 µM
4 | CC(C)C[C@H](NC(=O)[C@H](Cc1ccc(O)cc1)NC(=O)[C@@H]1CCCN1C(=O)[C@H](CCCNC(=N)N)NC(=O)[C@@H]1CCCN1C(=O)[C@H](CCCCN)NC(=O)[C@H](CCCCN)NC(=O)[C@@H]1CCCN1C(=O)[C@H](CCCNC(=N)N)NC(=O)C1(N)CCCCC1)C(=O)N1CCC[C@H]1C(=O)N[C@@H](CCCNC(=N)N)C(=O)N1CCC[C@H]1C(=O)N[C@@H](CCCNC(=N)N)C(=O)N1CCC[C@H]1C(=O)N1CCC[C@H]1C(=O)N[C@@H](CCCNC(=N)N)C(=O)N1CCC[C@H]1C(=O)N[C@H](C(=O)N[C@@H](CCCNC(=N)N)C(N)=O)C(C)C [peptide 2] (H-[Ac6c]RPKKPRPYLPRPRPPRPVR-NH2) | – | – | Ki (E. coli DnaK [2]): 600 nM
5 | CC(C)C[C@H](NC(=O)[C@H](Cc1ccc(O)cc1)NC(=O)[C@@H]1CCCN1C(=O)[C@H](CCCNC(=N)N)NC(=O)[C@@H]1CCCN1C(=O)[C@H](Cc1ccccc1)NC(=O)[C@H](Cc1ccccc1)NC(=O)[C@@H]1CCCN1C(=O)[C@H](CCCNC(=N)N)NC(=O)C1(N)CCCCC1)C(=O)N1CCC[C@H]1C(=O)N[C@@H](CCCNC(=N)N)C(=O)N[C@@H](CCCCN)C(=O)N[C@@H](CCCNC(=N)N)C(=O)N1CCC[C@H]1C(=O)N1CCC[C@H]1C(=O)N[C@@H](CCCNC(=N)N)C(=O)N1CCC[C@H]1C(=O)N[C@H](C(=O)N[C@@H](CCCNC(=N)N)C(N)=O)C(C)C [peptide 105] (H-[Ac6c]RPFFPRPYLPRKRPPRPVR-NH2) | best binders | best binders | –
6 | Chex-RPDDPRPDLPRPRPPRPVR-NH2 [compound 53, substituted analog of ARV-1502] | – | – | increase of ATPase activity, S. aureus chaperone system [5]: ≥ 60%
7 | Chex-RPDDPRPKLPRPRPPRPVR-NH2 [compound 54, substituted analog of ARV-1502] | – | best binders | –
8 | Chex-RPDDPRPYLPLPRPPRPVR-NH2 [compound 66, substituted analog of ARV-1502] | – | – | decrease of ATPase activity, E. coli chaperone system [6]: at least 40%; ATPase activity of the E. coli DnaK/DnaJ/GrpE system, normalized to activity without peptide (100%) [6]: below 60%
9 | Chex-RPDDPRPYLPRDRPPRPVR-NH2 [compound 68, substituted analog of ARV-1502] | – | – | decrease of ATPase activity, E. coli chaperone system [6]: 50%
10 | Chex-RPDKPRPDDPRPRPPRPVR-NH2 [compound 107, substituted analog of ARV-1502] | – | – | increase of ATPase activity, S. aureus chaperone system [5]: ≥ 60%
11 | Chex-RPDKPRPDKPRPRPPRPVR-NH2 [compound 108, substituted analog of ARV-1502] | bound neither | bound neither | –
12 | Chex-RPDKPRPDLPRDRPPRPVR-NH2 [compound 117, substituted analog of ARV-1502] | – | – | ATPase activity of the E. coli DnaK/DnaJ/GrpE system, normalized to activity without peptide (100%) [6]: below 60%; increase of ATPase activity, S. aureus chaperone system [5]: ≥ 60%
13 | Chex-RPDKPRPDLPRSRPPRPVR-NH2 [compound 119, substituted analog of ARV-1502] | – | – | ATPase activity of the S. aureus DnaK/DnaJ/GrpE system, normalized to activity without peptide (100%) [5]: more than 160%
14 | Chex-RPDKPRPKSPRPRPPRPVR-NH2 [compound 122, substituted analog of ARV-1502] | bound neither | bound neither | –
15 | Chex-RPDKPRPSLDRPRPPRPVR-NH2 [compound 128, substituted analog of ARV-1502] | – | – | ATPase activity of the E. coli DnaK/DnaJ/GrpE system, normalized to activity without peptide (100%) [6]: below 60%
16 | Chex-RPDKPRPSLPRSRPPRPVR-NH2 [compound 133, substituted analog of ARV-1502] | – | best binders | –
17 | Chex-RPDKPRPYKPDPRPPRPVR-NH2 [compound 160, substituted analog of ARV-1502] | – | best binders | –
18 | Chex-RPDKPRPYSPDPRPPRPVR-NH2 [compound 170, substituted analog of ARV-1502] | – | best binders | –
19 | Chex-RPDKPRPYSPLPRPPRPVR-NH2 [compound 172, substituted analog of ARV-1502] | – | best binders | –
20 | Chex-RPFFPRPKLPRPRPPRPVR-NH2 [compound 90, substituted analog of ARV-1502] | best binders | best binders | –
21 | Chex-RPFFPRPSLPRPRPPRPVR-NH2 [compound 91, substituted analog of ARV-1502] | best binders | best binders | –
22 | Chex-RPFFPRPYLPRSRPPRPVR-NH2 [compound 106, substituted analog of ARV-1502] | best binders | best binders | –
23 | Chex-RPFFPRPYLPSPRPPRPVR-NH2 [compound 101, substituted analog of ARV-1502] | best binders | best binders | –
24 | Chex-RPSSPRPYLPSPRPPRPVR-NH2 [compound 83, substituted analog of ARV-1502] | – | – | ATPase activity of the S. aureus DnaK/DnaJ/GrpE system, normalized to activity without peptide (100%) [5]: more than 160%
